Patent US8097637B2, “Benzoyl-piperidine derivatives as dual modulators of the 5-HT2A and D3 receptors” (Hoffmann-La Roche Inc., priority 2007, dated 2012)

Tests used:
[1] = target: T1, human D3 dopamine receptor (Homo sapiens, UniProt P35462); assay: Radioligand binding ([3H]-spiperone) to cloned human D3 receptor, HEK-293 EBNA cell membranes; conditions: 0.5 nM [3H]-spiperone, 1 h at RT, Cheng-Prusoff
T1 construct: expressed in transfected cells; host or cells: HEK-293 EBNA cells, transient transfection; membrane preparation
Procedure: The ability of the compounds to bind to the 5-HT2A, D3 and D2 receptors was determined using radioligand binding to cloned receptors selectively expressed in HEK-293 EBNA cells.
(§1) Membrane Preparation for Human D2, Human D3 and Human 5-HT2A Receptors
(§2) HEK-293 EBNA cells were transiently transfected with expression plasmids encoding for the human D2 or D3 dopamine- or for the human 5-HT2A serotonin receptor, respectively. The cells were harvested 48 h post-transfection, washed three times with cold PBS and stored at −80° C. prior to use. The pellet was suspended in cold 50 mM Tris-HCl buffer containing 10 mM EDTA (pH 7.4) and homogenized with a Polytron (Kinematica AG, Basel, Switzerland) for 20-30 sec at 12.000 rpm. After centrifugation at 48.000×g for 30 min at 4° C., the pellet was resuspended in cold 10 mM Tris-HCl buffer containing 0.1 mM EDTA (pH 7.4), homogenized, and centrifuged as above. This pellet was further resuspended in a smaller volume of ice cold 10 mM Tris-HCl buffer containing 0.1 mM EDTA (pH 7.4) and homogenized with a Polytron for 20-30 sec at 12.000 rpm. The protein content of this homogenate was determined with the Bio-Rad (Bradford) Protein Assay (Biorad Laboratories GmbH, München, Germany) according to the instructions of the manufacturer using gamma globulin as the standard. This homogenate was stored at −80° C. in aliquots and thawed immediately prior to use.
(§3) Radioligand Binding Assay Conditions
(§4) Aliquots of membrane preparations were thawed at RT, resuspended in assay buffer (D2, D3: 50 mM Tris-HCl, 120 mM NaCl, 5 mM MgCl2, 1 mM EDTA, 5 mM KCl, 1.5 mM CaCl2, pH=7.4; 5-HT2A: 50 mM Tris-HCl, 10 mM MgCl2, 1 mM EGTA, pH=7.4), homogenized with a Polytron for 20-30 sec at 12.000 rpm and adjusted to a final concentration of approximately 7.5 μg protein/well (D2, D3) and 15 μg protein/well (5-HT2A), respectively.
(§5) The binding affinity (Ki) of the compounds was determined using radioligand binding. Membranes were incubated in a total volume of 200 μl with a fixed concentration of radioligand (final concentration approximately 0.7 nM [^3H]-spiperone for D2, 0.5 nM [^3H]-spiperone for D3, and 1.1 nM [^3H]-ketanserin for 5-HT2A) and ten concentrations of test compound in ranging between 10 μM-0.1 nM for 1 h at RT. At the end of the incubation, the reaction mixtures were filtered on to unifilter 96-well white microplates with bonded GF/C filters (Packard BioScience, Zürich, Switzerland; preincubated for 1 h in 0.1% polyethylenimine (PEI) in assay buffer) with a Filtermate 196 harvester (Packard BioScience) and washed 3 times with cold assay buffer. The nonspecific binding was determined with equally composed reaction mixtures in the presence of 10 μM unlabeled spiperone. Per well 45 μl of Microscint 40 (Perkin Elmer, Schwerzenbach, Switzerland) was added, plates for sealed, shaken for 20 min and counted for 3 min on a Topcount Microplate Scintillation Counter (Canberra Packard SA, Zürich, Switzerland) with quenching correction.
(§6) The CPM value for each duplicate of a concentration of competing compound was averaged (yl), then the % specific binding was calculated according to the equation (((yl-non-specific)/(total binding-non-specific))×100). Graphs were plotted with the % specific binding using XLfit, a curve fitting program that iteratively plots the data using Levenburg Marquardt algorithm. The single site competition analysis equation used was y=A+((B−A)/(1+((x/C)^D))), where y is the % specific binding, A is the minimum y, B is the maximum y, C is the IC50, x is the log10 of the concentration of the competing compound and D is the slope of the curve (the Hill Coefficient). […] The affinity constant (Ki) was calculated using the Cheng-Prusoff equation Ki=(IC50/1+([L]/Kd), where [L] is the concentration of radioligand and Kd is the dissociation constant of the radioligand at the receptor as determined by the saturation isotherm.

[2] = target: T2, human 5-HT2A serotonin receptor (Homo sapiens, UniProt P28223); assay: Radioligand binding ([3H]-ketanserin) to cloned human 5-HT2A receptor, HEK-293 EBNA cell membranes; conditions: 1.1 nM [3H]-ketanserin, 1 h at RT, Cheng-Prusoff
T2 construct: expressed in transfected cells; host or cells: HEK-293 EBNA cells, transient transfection; membrane preparation
Procedure: as §1
as §2, with “The” for “HEK-293 EBNA cells were transiently transfected with expression plasmids encoding for the human D2 or D3 dopamine- or for the human 5-HT2A serotonin receptor, respectively. The”
as §3, §4
The binding affinity (Ki) of the compounds was determined using radioligand binding. […] The nonspecific binding was determined with equally composed reaction mixtures in the presence of 10 μM unlabeled spiperone. Per well 45 μl of Microscint 40 (Perkin Elmer, Schwerzenbach, Switzerland) was added, plates for sealed, shaken for 20 min and counted for 3 min on a Topcount Microplate Scintillation Counter (Canberra Packard SA, Zürich, Switzerland) with quenching correction.
as §6

[3] = target: T3, human D2 dopamine receptor (Homo sapiens, UniProt P14416); assay: Radioligand binding ([3H]-spiperone) to cloned human D2 receptor, HEK-293 EBNA cell membranes; conditions: 0.7 nM [3H]-spiperone, 1 h at RT, Cheng-Prusoff
T3 construct: expressed in transfected cells; host or cells: HEK-293 EBNA cells, transient transfection; membrane preparation
Procedure: as §1, §2, §3, §4, §5, §6

T1 sequence (P35462 whole entry): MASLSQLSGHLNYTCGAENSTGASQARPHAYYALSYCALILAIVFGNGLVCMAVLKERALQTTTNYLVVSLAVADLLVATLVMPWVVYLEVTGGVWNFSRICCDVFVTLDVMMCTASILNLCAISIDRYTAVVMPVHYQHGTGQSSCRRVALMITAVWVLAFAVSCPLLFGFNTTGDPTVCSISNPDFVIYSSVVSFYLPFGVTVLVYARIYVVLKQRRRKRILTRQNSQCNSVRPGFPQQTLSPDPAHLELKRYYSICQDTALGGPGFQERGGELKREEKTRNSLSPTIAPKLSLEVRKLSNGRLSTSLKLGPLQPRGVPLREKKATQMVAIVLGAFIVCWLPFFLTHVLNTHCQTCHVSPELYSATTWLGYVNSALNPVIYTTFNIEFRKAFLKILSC
T3 sequence (P14416 whole entry): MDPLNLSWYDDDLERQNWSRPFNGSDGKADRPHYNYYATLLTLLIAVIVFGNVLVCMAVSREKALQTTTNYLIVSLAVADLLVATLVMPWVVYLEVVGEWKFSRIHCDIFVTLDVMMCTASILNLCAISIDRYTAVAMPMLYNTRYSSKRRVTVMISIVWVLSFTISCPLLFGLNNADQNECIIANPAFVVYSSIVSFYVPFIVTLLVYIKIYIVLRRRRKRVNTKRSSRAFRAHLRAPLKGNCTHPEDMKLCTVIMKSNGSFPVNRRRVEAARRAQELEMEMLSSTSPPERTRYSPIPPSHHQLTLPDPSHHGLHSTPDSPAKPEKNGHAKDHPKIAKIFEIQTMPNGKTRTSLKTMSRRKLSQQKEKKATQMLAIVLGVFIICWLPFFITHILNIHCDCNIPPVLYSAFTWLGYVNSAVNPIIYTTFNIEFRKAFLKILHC
T2 sequence (P28223 whole entry): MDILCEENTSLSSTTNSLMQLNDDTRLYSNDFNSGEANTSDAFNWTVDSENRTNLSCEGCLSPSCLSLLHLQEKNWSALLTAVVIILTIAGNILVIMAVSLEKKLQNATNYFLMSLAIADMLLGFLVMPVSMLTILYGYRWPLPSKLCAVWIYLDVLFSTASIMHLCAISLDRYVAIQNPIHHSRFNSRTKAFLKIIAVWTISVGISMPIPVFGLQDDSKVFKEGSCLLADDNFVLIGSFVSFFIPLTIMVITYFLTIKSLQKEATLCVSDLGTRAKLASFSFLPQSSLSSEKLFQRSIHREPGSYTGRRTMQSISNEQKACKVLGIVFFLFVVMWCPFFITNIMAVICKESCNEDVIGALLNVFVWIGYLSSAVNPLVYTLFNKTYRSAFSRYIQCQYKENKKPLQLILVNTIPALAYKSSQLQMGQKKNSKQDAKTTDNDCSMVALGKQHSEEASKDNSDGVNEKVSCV

Structure (SMILES)	Ki [1]	Ki [2]	Ki [3]
CO[C@H]1CC[C@H](CC(=O)N[C@H]2CC[C@H](CCN3CCC(C(=O)c4ccc(F)cc4)CC3)CC2)CC1 [Example 3, N-trans (4-{2-[4-(4-Fluoro-benzoyl)-piperidin-1-yl]-ethyl}-cyclohexyl)-2-trans (4-methoxy-cyclohexyl)-acetamide]	0.024 µM	0.006 µM	1.28 µM
O=C(CC1CCC2(CC1)OCCO2)N[C@H]1CC[C@H](CCN2CCC(C(=O)c3ccc(F)cc3)CC2)CC1 [Example 12, 2-(1,4-Dioxa-spiro[4.5]dec-8-yl)-N-trans (4-{2-[4-(4-fluoro-benzoyl)-piperidin-1-yl]-ethyl}-cyclohexyl)-acetamide]	0.024 µM	0.006 µM	1.74 µM
CCO[C@H]1CC[C@H](CC(=O)N[C@H]2CC[C@H](CCN3CCC(C(=O)c4ccc(F)cc4)CC3)CC2)CC1 [Example 13, Trans-2-(4-Ethoxy-cyclohexyl)-N-trans (4-{2-[4-(4-fluoro-benzoyl)-piperidin-1-yl]-ethyl}-cyclohexyl)-acetamide]	0.033 µM	0.013 µM	1.4 µM
COC[C@H]1CC[C@H](CC(=O)N[C@H]2CC[C@H](CCN3CCC(C(=O)c4ccc(F)cc4)CC3)CC2)CC1 [Example 21, N-trans (4-{2-[4-(4-Fluoro-benzoyl)-piperidin-1-yl]-ethyl}-cyclohexyl)-2-trans (4-methoxymethyl-cyclohexyl)-acetamide]	0.025 µM	0.005 µM	1.01 µM
COC[C@H]1C[C@H](CC(=O)N[C@H]2CC[C@H](CCN3CCC(C(=O)c4ccc(F)cc4)CC3)CC2)C1 [Example 25, N-trans (4-{2-[4-(4-Fluoro-benzoyl)-piperidin-1-yl]-ethyl}-cyclohexyl)-2-trans (3-methoxymethyl-cyclobutyl)-acetamide]	0.027 µM	0.009 µM	1.86 µM
COC[C@H]1C[C@@H](CC(=O)N[C@H]2CC[C@H](CCN3CCC(C(=O)c4ccc(F)cc4)CC3)CC2)C1 [Example 26, N-trans (4-{2-[4-(4-Fluoro-benzoyl)-piperidin-1-yl]-ethyl}-cyclohexyl)-2-cis (3-methoxymethyl-cyclobutyl)-acetamide]	0.026 µM	0.006 µM	2.03 µM
CC(=O)N[C@H]1CC[C@H](CC(=O)N[C@H]2CC[C@H](CCN3CCC(C(=O)c4ccc(F)cc4)CC3)CC2)CC1 [Example 27, 2-trans (4-Acetylamino-cyclohexyl)-N-trans-(4-{2-[4-(4-fluoro-benzoyl)-piperidin-1-yl]-ethyl}-cyclohexyl)-acetamide]	0.044 µM	0.034 µM	2.07 µM
